From the NIST ThermoML archive (doi:10.1021/je0496995)

Experiments:
[1] = Liquid; for viscosity: 101.3 kPa, Capillary tube (Ostwald / Ubbelohde) method; for mass density: 101.33 kPa, Pycnometric method
[2] = wn = mass fraction of the nth substance listed; settings: 101.3 kPa, Liquid; for viscosity: Capillary tube (Ostwald / Ubbelohde) method; for mass density: Pycnometric method
[3] = mn = molality of the nth substance listed, in mol/kg; settings: Liquid, m2 = 0; for viscosity: 101.3 kPa, Capillary tube (Ostwald / Ubbelohde) method; for mass density: 101.33 kPa, Pycnometric method

Cc1cccnc1 [3-methylpyridine]
[1]
Settings | mass density [kg/m3] | viscosity [mPa·s]
293.15 K | 956 | 0.9459
303.15 K | 946.6 | 0.8318
313.15 K | 937.7 | 0.7352
323.15 K | 928.3 | 0.6565
333.15 K | 919.3 | 0.5936
343.15 K | 910.3 | 0.539

Cc1cccnc1 [3-methylpyridine] + O
[2]
Settings | mass density, w1 = 0.1 [kg/m3] | mass density, w1 = 0.15 [kg/m3] | viscosity, w2 = 0.1 [mPa·s] | viscosity, w2 = 0.15 [mPa·s]
293.15 K | 997.8 | 997.5 | 1.291 | 1.448
303.15 K | 994.4 | 993.7 | 1.002 | 1.143
313.15 K | 990.2 | 989.2 | 0.8117 | 0.9152
323.15 K | 985.2 | 983.7 | 0.6796 | 0.7673
333.15 K | 979.6 | 977.7 | 0.5794 | 0.6568
343.15 K | 973.7 | 971.7 | 0.5053 | 0.5712

Cc1cccnc1 [3-methylpyridine] + O=C(O)c1cccnc1
[3]
Settings | mass density [kg/m3] | viscosity [mPa·s]
293.15 K | 956 | 0.9459
303.15 K | 946.6 | 0.8318
313.15 K | 937.7 | 0.7352
323.15 K | 928.3 | 0.6565
333.15 K | 919.3 | 0.5936
343.15 K | 910.3 | 0.539
